The values that follow come from article PMC5437240, “Computational and structural evidence for neurotransmitter-mediated modulation of the oligomeric states of human insulin in storage granules” (The Journal of Biological Chemistry, 2017).

SMILES strings stand for the structures.

The assay has as its target T1, porcine hexameric Zn2+-insulin (Sus scrofa, UniProt P01315).
T1 construct: gene INS; mature two-chain disulfide-linked insulin, cut from (pre)proinsulin; Zn2+ hexamer (two Zn per hexamer), T6 start state
Nature of the assay: UV-visible 4H3N chromophore titration, Hill fit. The format is binding. The conditions noted are these: read-out: Kd ± S.D. From the text:
UV-visible 4H3N chromophore titration, Hill fit on porcine hexameric Zn2+-insulin

T1 sequence (P01315 25-54): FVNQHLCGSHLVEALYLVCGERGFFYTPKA
T1 sequence (P01315 88-108): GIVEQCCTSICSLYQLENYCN

A word on the Kd: it is the equilibrium constant for the complex coming apart. With `NCCc1c[nH]c2ccc(O)cc12` [serotonin], the Kd was 3.34 ± 0.52 mM.
The value for `Oc1ccccc1` [phenol] was 0.86 ± 0.13 mM.
